Test results reported in publication PMC11046469, “Leveraging a Phage-Encoded Noncanonical Amino Acid: A Novel Pathway to Potent and Selective Epigenetic Reader Protein Inhibitors” (ACS Central Science, 2024).
Several values for one entry are separate records, joined by “and”; a condition that tells them apart may be missing. Equal entries are not always repeated. Where a SMILES comes first, the peptide text is derived from it. The star is where a group is joined. Oxazole(5-CO) = O=C(c1cnco1)*; Crotonyl(E) = C/C=C/C(=O)*; 2Furoyl = O=C(c1ccco1)*; Butyryl = CCCC(=O)*

How the values were obtained:
[1] = target: T1, ENL YEATS domain (His-ENL) (Homo sapiens, UniProt Q03111); assay: Biolayer interferometry (BLI) binding to ENL YEATS; details: for Selectivity (ENL:AF9) from BLI KD values: ratio KD,AF9 / KD,ENL
T1 construct: (aa 1−148) was cloned in pET19b; made in house; host or cells: E. coli BL21(DE3pLysS)
T1 sequence (Q03111 1-148): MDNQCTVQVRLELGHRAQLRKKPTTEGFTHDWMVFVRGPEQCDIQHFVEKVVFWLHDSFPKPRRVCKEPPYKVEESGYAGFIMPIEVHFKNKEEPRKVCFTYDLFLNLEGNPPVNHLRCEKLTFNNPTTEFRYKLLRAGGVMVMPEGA
Description: (§1) To test the inhibition potency of the two selected peptides for the ENL YEATS domain, ENL-S1 and ENL-S2 were chemically synthesized through solid-phase peptide synthesis (SPPS) and evaluated by an AlphaScreen assay. In this assay, a biotinylated H3K27cr peptide and a 6xHis-tagged ENL YEATS domain (His-ENL YEATS) were immobilized on PerkinElmer streptavidin donor and nickel-chelating (Ni-NTA) acceptor beads, respectively. The use of a His-ENL YEATS instead of the original AviSUMO-ENL YEATS construct in the assay prevents potential false positive results derived from ligands which bind to the SUMO protein but not to the ENL YEATS domain. […] We then assessed the binding affinity of two ligands for the ENL YEATS domain using biolayer interferometry (BLI). Briefly, His-ENL was immobilized onto Ni-NTA functionalized biosensors to measure the binding kinetics of target peptides at different concentrations. […] As a small peptide directly selected from a phage display library, this level of high potency was unexpected. […] However, shorter-than-10-mer linear peptides with nanomolar binding potency have rarely been directly selected from phage display libraries. One example was S2P03, a 7-mer peptide that has a KD value as 49 ± 9 nM to bind to SIRT2.[10] This peptide contained BuK and was identified also from a BuK-containing phage display library using the active site-directed ligand selection technique. Taken together, the two examples confirmed that utilizing phage display libraries incorporated with a ncAA serving as a ligand for a protein target for active site-directed ligand selection is a successful method for identifying ultrahigh potency ligands for epigenetic proteins including both enzymes and readers. For ENL-S1 and ENL-S2, their determined kon and koff values were 6.23 ± 0.07 × 10^4 M^–1 s^–1, […] and […], 5.54 ± 0.02 × 10^–3 s^–1, respectively. Compared to ENL-S2, ENL-S1 has faster binding to the ENL YEATS domain and slower release from it, indicating its potential long-term action on the ENL YEATS inhibition. […]
Biolayer Interferometry to Validate ENL Ligands:
His-ENL, His-AF9 (aa 1-149, EpiCypher), His-GAS41 (aa 15-160, EpiCypher), and YEATS2-His (aa 200-345, EpiCypher) were reconstituted in water and diluted into assay buffer (20mM Tris, 300 mM NaCl, pH 7.9) for immobilization onto Octet Ni-NTA biosensors (Sartorius). Lyophilized peptides were dissolved in DMF and diluted to designated concentrations in assay buffer. Biolayer interferometry assays were performed in 96 well plates (GreinerBio-One, polypropylene, flat-bottom) using an Octet Red96 System (Sartorius). Wells were filled with 200 μL of assay buffer, blocking buffer (assay buffer + 0.1% BSA), protein solution, peptide solution, regeneration solution, and reload solution. For immobilization, His-tagged proteins were immobilized onto Ni-NTA sensors at 20 for 600 s. Sensors were then dipped into blocking buffer for 180 s, assay […] buffer for 300 s, peptide solution for 300 s, and back to assay buffer for 300 s. If multiple samples were tested, Ni-NTA sensors can be reconditioned in regeneration (10 mM glycine, pH 1.7) solution followed by reload solution (10 mM NiCl2) for 30 and 60 s, respectively. Measurements were carried out at 30 °C. Data were analyzed within the ForteBio Data Analysis software. Data were processed by double subtracting ligand only and protein only reference wells and aligning the data to the beginning of the association. Then, global kinetic fit was performed for all sensogram curves with a 1:1 model. Steady state KD values were reported.
AlphaScreen Assay with Biotinylated-ENL-S1:
The AlphaScreen assay was carried out in 384-well plates. Manual assay setup was performed in a 40 uL reaction buffer (50 mM HEPES pH 7.4, 100 mM NaCl, 0.1% bovine serum albumin, and 0.05% CHAPS). 10 µL of varying concentrations of His-ENL YEATS (0-300 nM) and 10 µL of […]

[2] = target: T2, ENL YEATS domain (His-ENL YEATS) (Homo sapiens, UniProt Q03111); assay: AlphaScreen inhibition of ENL YEATS binding to biotinylated H3K27cr peptide; details: mean ± SD, n = 3
T2 construct: (aa 1−148) was cloned in pET19b; made in house; host or cells: E. coli BL21(DE3pLysS)
T2 sequence (Q03111 1-148): T1 sequence (Q03111 1-148)
Description: as §1
Characterization of Selected Peptide Inhibitors
AlphaScreen Assay to Validate ENL Inhibitors:
His-ENL, His-AF9 (aa 1-149, EpiCypher), and biotinylated H3K27cr (aa 15-33, EpiCypher) were used to assay the synthesized inhibitors. The lyophilized peptide inhibitors were dissolved in DMF […]
and serially diluted into assay buffer (50 mM HEPES, 100 mM NaCl, 0.1% BSA, 0.05% CHAPS, pH 7.4) and incubated in the presence of 120 nM His-tagged protein at 37 °C for 30 minutes. 12.5 μL of biotinylated H3K27cr (400 nM) was aliquoted into a light gray 384-well Alphaplate (Perkin Elmer) and incubated at 37 °C. 12.5 μL of the inhibitor/protein solution was added to the H3K27cr solution, and incubated for 30 minutes at 37 °C. 25 μL of AlphaScreen histidine (nickel chelate) detection beads (Perkin Elmer) was added at 20 μg/mL each bead (streptavidin donor beads and nickel chelate acceptor beads), and the plate was incubated at 37 °C for 30 minutes. The plate was cooled to room temperature for 10 minutes, and then the beads were excited at 680 nm and the luminescence at 615 nm was read. […]
Biolayer […]
interferometry assays were performed in 96 well plates (GreinerBio-One, polypropylene, flat-bottom) using an Octet Red96 System (Sartorius). Wells were filled with 200 μL of assay buffer, blocking buffer (assay buffer + 0.1% BSA), protein solution, peptide solution, regeneration solution, and reload solution. For immobilization, His-tagged proteins were immobilized onto Ni-NTA sensors at 20 for 600 s. Sensors were then dipped into blocking buffer for 180 s, assay […] buffer for 300 s, peptide solution for 300 s, and back to assay buffer for 300 s. If multiple samples were tested, Ni-NTA sensors can be reconditioned in regeneration (10 mM glycine, pH 1.7) solution followed by reload solution (10 mM NiCl2) for 30 and 60 s, respectively. Measurements […]

| SMILES | Kd ([1]; BLI) | kon ([1]; BLI) | Selectivity (ENL:AF9) from BLI KD values [1] | IC50 [2] |
| --- | --- | --- | --- | --- |
| CCCC(=O)NCCCC[C@H](NC(=O)[C@H](Cc1ccc(O)cc1)NC(=O)[C@H](CS)NC(=O)[C@H](Cc1ccc(O)cc1)NC(=O)[C@@H](NC(=O)[C@H](CC(=O)O)NC(=O)[C@@H](N)Cc1ccc(O)cc1)C(C)C)C(N)=O [ENL-S1] (H-YDVYCYK(Butyryl)-NH2) | 36.3 nM and 36 nM | 62300 ± 7e+06 M⁻¹ s⁻¹ | 5.6 fold | 62.6 ± 1.4 nM |
| C/C=C/C(=O)NCCCC[C@H](NC(=O)[C@H](Cc1ccc(O)cc1)NC(=O)[C@H](CS)NC(=O)[C@H](Cc1ccc(O)cc1)NC(=O)[C@@H](NC(=O)[C@H](CC(=O)O)NC(=O)[C@@H](N)Cc1ccc(O)cc1)C(C)C)C(N)=O [ENL-S1c] (H-YDVYCYK(Crotonyl(E))-NH2) | 16.2 nM | – | 9.1 fold | 20 nM |
| CC(C)[C@H](NC(=O)[C@H](CC(=O)O)NC(=O)[C@@H](N)Cc1ccc(O)cc1)C(=O)N[C@@H](Cc1ccc(O)cc1)C(=O)N[C@@H](CS)C(=O)N[C@@H](Cc1ccc(O)cc1)C(=O)N[C@@H](CCCCNC(=O)c1ccco1)C(N)=O [ENL-S1f] (H-YDVYCYK(2Furoyl)-NH2) | 10.3 nM | – | 14.0 fold | 22.4 ± 2.2 nM |
| CC(C)[C@H](NC(=O)[C@H](CC(=O)O)NC(=O)[C@@H](N)Cc1ccc(O)cc1)C(=O)N[C@@H](Cc1ccc(O)cc1)C(=O)N[C@@H](CS)C(=O)N[C@@H](Cc1ccc(O)cc1)C(=O)N[C@@H](CCCCNC(=O)c1cnco1)C(N)=O [ENL-S1o] (H-YDVYCYK(Oxazole(5-CO))-NH2) | 2 nM | – | 27.6 fold | 10 nM and 10.3 nM |
